Results as given in ChEMBL document CHEMBL1250455, “Further delineation of hydrophobic binding sites in dopamine D(2)/D(3) receptors for N-4 substituents on the piperazine ring of the hybrid template 5/7-{[2-(4-aryl-piperazin-1-yl)-ethyl]-propyl-amino}-5,6,7,8-tetrahydro-naphthalen-2-ol” (Bioorg Med Chem, 2010).

Legend:
D(2) dopamine receptor [1] = biological target: D(2) dopamine receptor (Rattus norvegicus, UniProt P61169); experiment: Displacement of [3H]spiperone from rat D2 receptor expressed in HEK293 cells; type: cell-based
Rattus norvegicus = organism: Rattus norvegicus; experiment: Selectivity ratio for Ki for rat D2 receptor to Ki for rat D3 receptor
D(3) dopamine receptor [2] = biological target: D(3) dopamine receptor (Rattus norvegicus, UniProt P19020); experiment: Displacement of [3H]spiperone from rat D3 receptor expressed in HEK293 cells; type: cell-based
D(2) dopamine receptor [3] = biological target: T1, D(2) dopamine receptor (Homo sapiens, UniProt P14416); experiment: Agonist activity at human dopamine D2 receptor expressed in CHO cells assessed as stimulation of [35S]GTPgammaS binding relative to dopamine; type: functional, cell-based
Homo sapiens = organism: Homo sapiens; experiment: Selectivity ratio of EC50 for human dopamine D2 receptor to EC50 for human dopamine D3 receptor
D(2) dopamine receptor [4] = biological target: T1, D(2) dopamine receptor; experiment: Agonist activity at human dopamine D2 receptor expressed in CHO cells assessed as stimulation of [35S]GTPgammaS binding; type: functional, cell-based
D(3) dopamine receptor [5] = biological target: D(3) dopamine receptor (Homo sapiens, UniProt P35462); experiment: Agonist activity at human dopamine D3 receptor expressed in CHO cells assessed as stimulation of [35S]GTPgammaS binding; type: functional, cell-based
D(3) dopamine receptor (Homo sapiens, UniProt P35462), sequence (P35462 whole entry): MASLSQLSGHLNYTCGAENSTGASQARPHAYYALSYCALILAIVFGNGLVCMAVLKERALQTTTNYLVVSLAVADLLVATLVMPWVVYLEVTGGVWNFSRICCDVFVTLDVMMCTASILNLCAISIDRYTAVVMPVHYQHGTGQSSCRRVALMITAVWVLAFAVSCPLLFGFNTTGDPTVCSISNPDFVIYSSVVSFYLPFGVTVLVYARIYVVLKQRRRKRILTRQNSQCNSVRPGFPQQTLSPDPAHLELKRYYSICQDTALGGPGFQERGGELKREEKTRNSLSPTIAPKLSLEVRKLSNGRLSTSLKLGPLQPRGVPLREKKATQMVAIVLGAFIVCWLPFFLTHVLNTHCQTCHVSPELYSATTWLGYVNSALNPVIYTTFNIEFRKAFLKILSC

D(3) dopamine receptor (Rattus norvegicus, UniProt P19020), sequence (P19020 whole entry): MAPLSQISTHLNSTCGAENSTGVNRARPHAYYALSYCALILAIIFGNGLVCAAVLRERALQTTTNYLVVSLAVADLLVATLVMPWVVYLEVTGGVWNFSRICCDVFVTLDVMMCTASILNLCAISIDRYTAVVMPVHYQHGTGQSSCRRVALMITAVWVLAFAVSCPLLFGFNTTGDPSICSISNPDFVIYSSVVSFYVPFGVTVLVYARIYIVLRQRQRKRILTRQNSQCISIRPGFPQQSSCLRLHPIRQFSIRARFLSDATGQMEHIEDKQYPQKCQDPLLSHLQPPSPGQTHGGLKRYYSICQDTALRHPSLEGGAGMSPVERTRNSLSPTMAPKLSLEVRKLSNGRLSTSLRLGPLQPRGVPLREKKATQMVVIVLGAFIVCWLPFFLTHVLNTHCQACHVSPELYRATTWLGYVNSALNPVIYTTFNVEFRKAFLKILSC
D(2) dopamine receptor (Rattus norvegicus, UniProt P61169), sequence (P61169 whole entry): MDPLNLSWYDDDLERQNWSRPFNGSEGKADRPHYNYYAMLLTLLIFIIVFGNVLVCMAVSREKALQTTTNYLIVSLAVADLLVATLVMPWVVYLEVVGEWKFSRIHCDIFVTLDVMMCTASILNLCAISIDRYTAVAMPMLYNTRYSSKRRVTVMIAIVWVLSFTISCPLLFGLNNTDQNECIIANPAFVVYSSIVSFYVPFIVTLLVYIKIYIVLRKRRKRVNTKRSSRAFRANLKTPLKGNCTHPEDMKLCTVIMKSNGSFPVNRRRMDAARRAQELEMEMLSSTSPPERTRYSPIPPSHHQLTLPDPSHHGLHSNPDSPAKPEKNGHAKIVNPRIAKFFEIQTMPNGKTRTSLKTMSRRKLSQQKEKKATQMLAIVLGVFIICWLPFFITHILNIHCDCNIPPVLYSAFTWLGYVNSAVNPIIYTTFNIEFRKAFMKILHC
T1 sequence (P14416 whole entry): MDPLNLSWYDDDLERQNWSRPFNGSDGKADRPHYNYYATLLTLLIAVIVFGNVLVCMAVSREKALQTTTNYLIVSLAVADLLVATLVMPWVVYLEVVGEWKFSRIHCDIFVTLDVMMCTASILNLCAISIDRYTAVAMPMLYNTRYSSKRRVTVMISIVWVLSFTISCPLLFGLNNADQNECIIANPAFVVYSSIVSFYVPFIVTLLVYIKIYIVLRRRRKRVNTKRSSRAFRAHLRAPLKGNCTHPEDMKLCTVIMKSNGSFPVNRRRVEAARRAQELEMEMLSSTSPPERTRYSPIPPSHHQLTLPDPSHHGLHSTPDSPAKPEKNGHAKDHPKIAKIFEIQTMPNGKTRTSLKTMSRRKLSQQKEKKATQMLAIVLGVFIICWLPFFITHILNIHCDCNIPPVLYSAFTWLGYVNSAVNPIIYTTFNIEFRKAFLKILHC

With `CCCN(CCN1CCN(c2ccccn2)CC1)C1CCc2ccc(O)cc2C1` (configuration not stated) the Ki (D(2) dopamine receptor [1]) was 103 nM, the Ratio Ki (Rattus norvegicus) was 52.6 and the Ki (D(3) dopamine receptor [2]) was 1.96 nM.

Molecule `CCCN(CCN1CCN(c2ncccn2)CC1)C1CCc2ccc(O)cc2C1` (configuration not stated) has a Ki (D(2) dopamine receptor [1]) of 165 nM, a Ratio Ki (Rattus norvegicus) of 24.1 and a Ki (D(3) dopamine receptor [2]) of 6.84 nM.

Work on `CCCN(CCN1CCN(c2cccnc2)CC1)C1CCc2ccc(O)cc2C1` (configuration not stated) yielded a Ki (D(2) dopamine receptor [1]) of 21.7 nM, a Ratio Ki (Rattus norvegicus) of 7.51 and a Ki (D(3) dopamine receptor [2]) of 2.89 nM.

Work on `CCCN(CCN1CCN(c2ccncc2)CC1)C1CCc2ccc(O)cc2C1` (configuration not stated) yielded a Ki (D(2) dopamine receptor [1]) of 68.3 nM, a Ratio Ki (Rattus norvegicus) of 4.84 and a Ki (D(3) dopamine receptor [2]) of 14.1 nM.

`CCCN(CCN1CCN(c2ccc(I)cc2)CC1)C1CCc2ccc(O)cc2C1` (configuration not stated) gave a Ki (D(2) dopamine receptor [1]) of 46.4 nM, a Ratio Ki (Rattus norvegicus) of 6.06 and a Ki (D(3) dopamine receptor [2]) of 7.66 nM.

`CCCN(CCN1CCN(c2nccc3ccccc23)CC1)[C@H]1CCc2nc(N)sc2C1` showed a Ratio Ki (Rattus norvegicus) of 121.

With `NCCc1ccc(O)c(O)c1` the Emax (D(2) dopamine receptor [3]) was 100%.

Work on `CCCN(CCN1CCN(c2ccc(-c3cccnc3)cc2)CC1)C1CCc2ccc(O)cc2C1` (racemic) yielded a Ki (D(2) dopamine receptor [1]) of 59.1 nM, a Ratio Ki (Rattus norvegicus) of 19.6 and a Ki (D(3) dopamine receptor [2]) of 3.01 nM.

`CCCN(CCN1CCN(c2ccc(-c3ccccc3)cc2)CC1)C1CCc2c(O)cccc2C1` (single isomer, unassigned; (-)) gave a Ratio EC50 (Homo sapiens) of 202, an EC50 (D(2) dopamine receptor [4]) of 52.6 nM and an Emax (D(2) dopamine receptor [3]) of 71.8%. It also gave a Ki (D(2) dopamine receptor [1]) of 53.6 nM, an EC50 (D(3) dopamine receptor [5]) of 0.25 nM and a Ratio Ki (Rattus norvegicus) of 22.7. For the same molecule, the Ki (D(3) dopamine receptor [2]) was 2.36 nM.

In the case of `CCCN(CCN1CCN(c2ccc(-c3ccncc3)cc2)CC1)C1CCc2c(O)cccc2C1` (single isomer, unassigned; (-)), the Ki (D(3) dopamine receptor [2]) is reported as 1.53 nM.

`CCCN(CCN1CCN(c2ccc(-c3ccncc3)cc2)CC1)C1CCc2ccc(O)cc2C1` (single isomer, unassigned; (-)) was tested, and the Ratio Ki (Rattus norvegicus) was 24.6.

With `CCCN(CCN1CCN(c2ccc(-c3ccccc3)cc2)CC1)C1CCc2ccc(O)cc2C1` (stereo in doubt; 8a) the Ki (D(2) dopamine receptor [1]) was 64.1 nM and the Ki (D(3) dopamine receptor [2]) was 5.22 nM.

`CCCN(CCN1CCN(c2ccc(-c3ccncc3)cc2)CC1)C1CCc2ccc(O)cc2C1` (stereo in doubt; 22d) [listing 1 of 2 here] was tested, and the Ki (D(2) dopamine receptor [1]) was 24.7 nM.

Work on `CCCN(CCN1CCN(c2ccc(-c3ccncc3)cc2)CC1)C1CCc2ccc(O)cc2C1` (stereo in doubt; 22d) [listing 2 of 2 here] yielded a Ratio Ki (Rattus norvegicus) of 32.

`CCCN(CCN1CCN(c2ccc(-c3ccccc3)cc2)CC1)C1CCc2ccc(O)cc2C1` (stereo in doubt; (+)-8a) [listing 1 of 2 here] gave an EC50 (D(2) dopamine receptor [4]) of 108 nM, a Ki (D(2) dopamine receptor [1]) of 58 nM and an EC50 (D(3) dopamine receptor [5]) of 1.03 nM. For the same molecule, the Ki (D(3) dopamine receptor [2]) was 2.79 nM.

`CCCN(CCN1CCN(c2ccc(-c3ccccc3)cc2)CC1)C1CCc2ccc(O)cc2C1` (stereo in doubt; (+)-8a) [listing 2 of 2 here] gave a Ratio EC50 (Homo sapiens) of 105, an Emax (D(2) dopamine receptor [3]) of 42.1% and a Ratio Ki (Rattus norvegicus) of 20.8.

For `CCCN(CCC)CCc1cccc2c1CC(=O)N2` [ROPINIROLE], the Emax (D(2) dopamine receptor [3]) was 83.9% and the Ki (D(2) dopamine receptor [1]) was 2670 nM.
